Data: PubChem BioAssay AID2060891 (Molecular Pharmacology Branch, DTP, NCI, 2025)

Tested on: K98450-129-R-PDC complex spheroid growth, percent test/control
Assay: Anticancer human tumor K98450-129-R-PDC patient-derived colon adenocarcinoma cell line growth inhibition [RAS]
Settings: for IC50: curve of first compound; for viability, T/C: stronger effect = lower value
Procedure, shortened: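 Tumour cells grown as complex spheroids with HUVEC endothelial cells and mesenchymal stem cells, treated with RAS pathway inhibitor combinations. Each agent spans half-log steps from near clinical Cmax, or 10 microM where Cmax is unknown.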

[1] = second compound 0.00316 µM, first compound 0.0316 µM
[2] = second compound 0.00316 µM, first compound 0.1 µM
[3] = second compound 0.00316 µM, first compound 0.316 µM
[4] = second compound 0.00316 µM, first compound 1 µM
[5] = second compound 0.00316 µM, first compound 3.16 µM
[6] = second compound 0.00316 µM, first compound 10 µM
[7] = second compound 0.01 µM, first compound 0.0316 µM
[8] = second compound 0.01 µM, first compound 0.1 µM
[9] = second compound 0.01 µM, first compound 0.316 µM
[10] = second compound 0.01 µM, first compound 1 µM
[11] = second compound 0.01 µM, first compound 3.16 µM
[12] = second compound 0.01 µM, first compound 10 µM
[13] = second compound 0.0316 µM, first compound 0.0316 µM
[14] = second compound 0.0316 µM, first compound 0.1 µM
[15] = second compound 0.0316 µM, first compound 0.316 µM
[16] = second compound 0.0316 µM, first compound 1 µM
[17] = second compound 0.0316 µM, first compound 3.16 µM
[18] = second compound 0.0316 µM, first compound 10 µM
[19] = second compound 0.1 µM, first compound 0.0316 µM
[20] = second compound 0.1 µM, first compound 0.1 µM
[21] = second compound 0.1 µM, first compound 0.316 µM
[22] = second compound 0.1 µM, first compound 1 µM
[23] = second compound 0.1 µM, first compound 3.16 µM
[24] = second compound 0.1 µM, first compound 10 µM
[25] = second compound 0.316 µM, first compound 0.0316 µM
[26] = second compound 0.316 µM, first compound 0.1 µM
[27] = second compound 0.316 µM, first compound 0.316 µM
[28] = second compound 0.316 µM, first compound 1 µM
[29] = second compound 0.316 µM, first compound 3.16 µM
[30] = second compound 0.316 µM, first compound 10 µM
[31] = second compound 1 µM, first compound 0.0316 µM
[32] = second compound 1 µM, first compound 0.1 µM
[33] = second compound 1 µM, first compound 0.316 µM
[34] = second compound 1 µM, first compound 1 µM
[35] = second compound 1 µM, first compound 3.16 µM
[36] = second compound 1 µM, first compound 10 µM
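Note: spheroids exposed to agents for seven days before the viability readout.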
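Throughout, for viability, T/C: luminescence used as a proxy for viable cell amount.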

CC(=O)OC12COC1CC(O)C1(C)C(=O)C(O)C3=C(C)C(OC(=O)C(O)C(NC(=O)OC(C)(C)C)c4ccccc4)CC(O)(C(OC(=O)c4ccccc4)C21)C3(C)C (centres undefined) + C=CC(=O)N1CCN(c2nc(OCC3CCCN3C)nc3c(F)c(-c4nc(N)cc(C)c4C(F)(F)F)c(Cl)cc23)C(C)C1
IC50 (second compound 0.00316 µM): 270 nM
IC50 (second compound 0.01 µM): 223 nM
IC50 (second compound 0.0316 µM): 151 nM
IC50 (second compound 0.1 µM): < 31.6 nM
IC50 (second compound 0.316 µM): < 31.6 nM
IC50 (second compound 1 µM): < 31.6 nM
viability, T/C [1]: 91.4%
viability, T/C [2]: 83.6%
viability, T/C [3]: 44.3%
viability, T/C [4]: 27.3%
viability, T/C [5]: 23.6%
viability, T/C [6]: 22.6%
viability, T/C [7]: 88.2%
viability, T/C [8]: 83.1%
viability, T/C [9]: 35.4%
viability, T/C [10]: 22.8%
viability, T/C [11]: 20.8%
viability, T/C [12]: 19.8%
viability, T/C [13]: 71.7%
viability, T/C [14]: 62.4%
viability, T/C [15]: 27.7%
viability, T/C [16]: 17.4%
viability, T/C [17]: 16.7%
viability, T/C [18]: 15.6%
viability, T/C [19]: 50%
viability, T/C [20]: 38.4%
viability, T/C [21]: 16.3%
viability, T/C [22]: 14.6%
viability, T/C [23]: 14%
viability, T/C [24]: 14.3%
viability, T/C [25]: 35.4%
viability, T/C [26]: 26.4%
viability, T/C [27]: 14%
viability, T/C [28]: 12.4%
viability, T/C [29]: 12.4%
viability, T/C [30]: 12.2%
viability, T/C [31]: 26.3%
viability, T/C [32]: 18.5%
viability, T/C [33]: 13.7%
viability, T/C [34]: 12.7%
viability, T/C [35]: 12.4%
viability, T/C [36]: 13.4%

Cc1nc(N2CCC3(CC2)COC(C)C3N)c(CO)nc1Sc1ccnc(N)c1Cl (centres undefined) + C=CC(=O)N1CCN(c2nc(OCC3CCCN3C)nc3c(F)c(-c4nc(N)cc(C)c4C(F)(F)F)c(Cl)cc23)C(C)C1
IC50 (second compound 0.00316 µM): 569 nM
IC50 (second compound 0.01 µM): 235 nM
IC50 (second compound 0.0316 µM): 82.4 nM
IC50 (second compound 0.1 µM): < 31.6 nM
IC50 (second compound 0.316 µM): < 31.6 nM
IC50 (second compound 1 µM): < 31.6 nM
viability, T/C [1]: 88.3%
viability, T/C [2]: 87.9%
viability, T/C [3]: 66.2%
viability, T/C [4]: 34.3%
viability, T/C [5]: 10.5%
viability, T/C [6]: 7.72%
viability, T/C [7]: 82.9%
viability, T/C [8]: 69.6%
viability, T/C [9]: 44.6%
viability, T/C [10]: 11.6%
viability, T/C [11]: 9.41%
viability, T/C [12]: 7.24%
viability, T/C [13]: 61.2%
viability, T/C [14]: 47.6%
viability, T/C [15]: 20.9%
viability, T/C [16]: 9.03%
viability, T/C [17]: 9.29%
viability, T/C [18]: 7.4%
viability, T/C [19]: 40.2%
viability, T/C [20]: 20.5%
viability, T/C [21]: 11%
viability, T/C [22]: 8.4%
viability, T/C [23]: 8.28%
viability, T/C [24]: 7.55%
viability, T/C [25]: 23.4%
viability, T/C [26]: 14.7%
viability, T/C [27]: 10.1%
viability, T/C [28]: 9.11%
viability, T/C [29]: 8.21%
viability, T/C [30]: 7.31%
viability, T/C [31]: 21.6%
viability, T/C [32]: 15.2%
viability, T/C [33]: 10.9%
viability, T/C [34]: 8.92%
viability, T/C [35]: 8.81%
viability, T/C [36]: 7.65%
